The values that follow come from PubChem BioAssay (NCI).

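Results reflect a 48-hour exposure of cells in 96-well plates to compound at five concentrations. GI50 marks 50% less growth. At the TGI there is no net growth.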 Bounds are passed on as bounds.

Among the test systems are CCRF-CEM leukemia; DMS 273 small cell lung; HT29 colon; MALME-3M melanoma; NCI-H522 lung; RXF 393 renal; SF-268 CNS; SK-MEL-28 melanoma; SK-MEL-5 melanoma; SNB-75 CNS; SNB-78 CNS.
Assay in all cases: growth of human tumour cells (NCI), 48 h

`Cc1nc2ccccc2c(=O)n1CC(=O)O`: the TGI in the assay with CCRF-CEM leukemia, in the assay on DMS 273 small cell lung, in the assay on HT29 colon, in the assay with MALME-3M melanoma, in the assay with NCI-H522 lung and in the assay on RXF 393 renal was above 100 µM each time. For the same compound, the TGI in the assay on SF-268 CNS, in the assay with SK-MEL-28 melanoma, in the assay on SK-MEL-5 melanoma, in the assay with SNB-75 CNS and with SNB-78 CNS was above 100 µM throughout.
`CC[C@@H](C(=O)[C@@H](C)[C@@H](O)[C@H](C)CCc1ccc(C)c(O)c1C(=O)O)[C@H]1O[C@](CC)([C@H]2CC[C@](O)(CC)[C@H](C)O2)C[C@@H]1C`: the TGI with CCRF-CEM leukemia is 6.29 µM; in the assay with DMS 273 small cell lung it was 8.1 µM; with HT29 colon, 12.6 µM; in the assay on MALME-3M melanoma, 2.42 µM; in the assay with NCI-H522 lung, 3.11 µM; in the assay with SF-268 CNS, 9.09 µM. In addition, the TGI in the assay on SK-MEL-28 melanoma is 2.86 µM; with SK-MEL-5 melanoma, 3.62 µM; in the assay with SNB-75 CNS, 7.07 µM; in the assay with SNB-78 CNS, 17.1 µM.
With `Cc1ccc(/C(=C/C=C(C#N)C#N)Sc2cc(Cl)ccc2Cl)cc1`, the TGI was above 100 µM in the assay with HT29 colon; 35.5 µM in the assay with MALME-3M melanoma; 22.1 µM in the assay with NCI-H522 lung; 27.8 µM with RXF 393 renal; 43.9 µM with SF-268 CNS; 28.9 µM in the assay on SK-MEL-28 melanoma. The TGI with SK-MEL-5 melanoma amounted to 26.4 µM; with SNB-75 CNS, 38.7 µM.
`O=C(Nc1ccc(Cl)cc1)/C(Cc1cccc[n+]1[O-])=N\Nc1ccc([N+](=O)[O-])cc1[N+](=O)[O-]`: the TGI in the assay with CCRF-CEM leukemia, in the assay on DMS 273 small cell lung, in the assay on MALME-3M melanoma, in the assay on NCI-H522 lung, in the assay with RXF 393 renal and with SF-268 CNS was above 100 µM throughout. In addition, the TGI in the assay with SK-MEL-28 melanoma, with SK-MEL-5 melanoma, in the assay on SNB-75 CNS and in the assay on SNB-78 CNS was above 100 µM each time.
For `CC1(C)CCc2cc3c(-c4ccccc4)cc(=O)oc3cc2O1`, the TGI in the assay on CCRF-CEM leukemia, in the assay on DMS 273 small cell lung, with HT29 colon, in the assay on MALME-3M melanoma, in the assay on NCI-H522 lung and with SF-268 CNS was above 100 µM each time. Further, the TGI in the assay on SK-MEL-28 melanoma is above 100 µM; in the assay with SK-MEL-5 melanoma, above 100 µM; in the assay on SNB-75 CNS, 71.5 µM; in the assay with SNB-78 CNS, above 100 µM.
In the case of `O=C1Nc2ccccc2Nc2nc3cccccc-3c21`, the TGI in the assay on CCRF-CEM leukemia, in the assay on DMS 273 small cell lung, with HT29 colon, in the assay with MALME-3M melanoma, in the assay on NCI-H522 lung and in the assay with RXF 393 renal was above 100 µM each time. Also, the TGI in the assay with SF-268 CNS, with SK-MEL-28 melanoma, in the assay on SK-MEL-5 melanoma, in the assay on SNB-75 CNS and in the assay on SNB-78 CNS was above 100 µM in each case.
For `CCOc1ccc2c(ccc(/C=C\c3cc(C)c4cccnc4c3O)[n+]2C)c1`, the TGI in the assay with HT29 colon was above 32.8 µM; with MALME-3M melanoma it was 14 µM; in the assay on NCI-H522 lung, 5.14 µM; in the assay with RXF 393 renal it was 18.9 µM; in the assay with SF-268 CNS, 28.3 µM; in the assay with SK-MEL-28 melanoma, 14.6 µM. Also, the TGI in the assay on SK-MEL-5 melanoma was found to be 3.48 µM; with SNB-75 CNS, 15 µM.
Take `c1ccc2c(c1)nc1n2CSC1`: the TGI in the assay with CCRF-CEM leukemia, in the assay with DMS 273 small cell lung, in the assay with HT29 colon, in the assay with MALME-3M melanoma, with NCI-H522 lung and in the assay on SF-268 CNS was above 100 µM in each case. In addition, the TGI with SK-MEL-28 melanoma, with SK-MEL-5 melanoma, with SNB-75 CNS and in the assay on SNB-78 CNS was above 100 µM each time.
As for `O=C(O)c1cc(=O)[nH]c(=S)[nH]1`, the TGI in the assay on CCRF-CEM leukemia, in the assay with HT29 colon, in the assay with MALME-3M melanoma, with NCI-H522 lung, in the assay on RXF 393 renal and in the assay on SF-268 CNS was above 100 µM throughout. For the same compound, the TGI in the assay with SK-MEL-28 melanoma, in the assay with SK-MEL-5 melanoma and in the assay on SNB-75 CNS was above 100 µM each time.
Regarding `CN1C2C=C(c3ccccc3)CC1CC2` (configuration not stated), the TGI in the assay with CCRF-CEM leukemia, in the assay on HT29 colon, in the assay on MALME-3M melanoma, in the assay on NCI-H522 lung, in the assay on RXF 393 renal and in the assay on SF-268 CNS was above 100 µM throughout. The TGI in the assay on SK-MEL-28 melanoma, with SK-MEL-5 melanoma and with SNB-75 CNS was above 100 µM each time.
For `Cc1ccc(S(=O)(=O)Oc2cc(S(=O)(=O)O)cc3cc(S(=O)(=O)O)cc(N)c23)cc1`, the TGI in the assay on CCRF-CEM leukemia, in the assay with HT29 colon, with MALME-3M melanoma, with NCI-H522 lung, in the assay on RXF 393 renal and in the assay on SF-268 CNS was above 100 µM in each case. The TGI with SK-MEL-28 melanoma, in the assay with SK-MEL-5 melanoma and with SNB-75 CNS was above 100 µM each time.
`CN1CCN(Cc2ccc(NC(=O)c3ccc(C#N)c(C#Cc4cnc(N)c5ncccc45)c3)cc2C(F)(F)F)CC1`: in the assay on NCI-H522 lung, the GI50 is 2.94 µM and the TGI is 28.6 µM. Also, in the assay with SK-MEL-5 melanoma, the GI50 is 6.67 µM and the TGI was determined as 83.1 µM.
Take `[C-]#[O+].[Cl][Sn]([Cl])[Cl].[Cl][Sn]([Cl])[Cl].[Pt].c1ccncc1`: the TGI in the assay with CCRF-CEM leukemia was above 100 µM; in the assay with DMS 273 small cell lung, above 100 µM; with HT29 colon, above 100 µM; in the assay with MALME-3M melanoma, above 100 µM; with NCI-H522 lung, above 65.3 µM; in the assay with RXF 393 renal it was above 100 µM. Besides, the TGI with SF-268 CNS, with SK-MEL-28 melanoma, in the assay with SK-MEL-5 melanoma and in the assay with SNB-75 CNS was above 100 µM each time.
On to `CC(=O)[O-].CC(=O)[O-].[NH2-].[Pt+2].c1ccncc1`, for which the TGI with CCRF-CEM leukemia was above 100 µM; in the assay with HT29 colon, above 100 µM; in the assay with MALME-3M melanoma, above 100 µM; with NCI-H522 lung, 44.2 µM; in the assay with RXF 393 renal, 64.6 µM; with SF-268 CNS it was above 100 µM. The TGI in the assay with SK-MEL-28 melanoma, in the assay on SK-MEL-5 melanoma and in the assay on SNB-75 CNS was above 100 µM each time.
For `Cc1cccc2c(N)c3cccc(C(=O)NCCN(C)C)c3nc12`, the TGI with CCRF-CEM leukemia worked out at 0.0324 µM; with MALME-3M melanoma it was 0.606 µM; with NCI-H522 lung, 0.0737 µM; with RXF 393 renal, 0.479 µM; in the assay with SF-268 CNS, 2.41 µM; in the assay on SK-MEL-28 melanoma it was 0.482 µM. Also, the results for the TGI in the assay with SK-MEL-5 melanoma and in the assay on SNB-75 CNS were 0.269 µM and 0.615 µM, respectively.
In the case of `CC(C)=CC(=O)OC1C2C(C)C(=O)OC2C(O)C(C)C2C=CC(=O)C21C` (configuration not stated), the TGI is 8.18 µM in the assay with CCRF-CEM leukemia; 8.85 µM in the assay on DMS 273 small cell lung; 7.94 µM in the assay with HT29 colon; 8.28 µM in the assay with MALME-3M melanoma; 1.57 µM with NCI-H522 lung; 3.68 µM in the assay on RXF 393 renal. Further, the TGI in the assay on SF-268 CNS stood at 8.42 µM; in the assay with SK-MEL-28 melanoma, 3.82 µM; in the assay on SK-MEL-5 melanoma, 9.14 µM; in the assay on SNB-75 CNS it was 6.67 µM; in the assay on SNB-78 CNS, 9.88 µM.
For the compound `CC(C)=CCc1c(C)cc2cc3c(c(O)c2c1O)C(O)=CC(=O)C3(CC=C(C)C)C/C=C(\C)CO` (configuration not stated), the TGI in the assay with CCRF-CEM leukemia worked out at 60.1 µM; in the assay with DMS 273 small cell lung it was 109 µM; in the assay on HT29 colon, 81.4 µM; in the assay on MALME-3M melanoma, 63.8 µM; in the assay on NCI-H522 lung, 65.2 µM; in the assay with RXF 393 renal, 63.4 µM. Also, the TGI with SF-268 CNS worked out at 85.4 µM; in the assay with SK-MEL-28 melanoma it was 86.8 µM; in the assay with SK-MEL-5 melanoma, 50.9 µM; in the assay on SNB-75 CNS, 92.8 µM.
Take `CCOP(=O)(OCC)C(Cc1ccc(OC)c(OC)c1)N=C(c1ccccc1)c1ccccc1` (configuration not stated): the TGI was 96.9 µM with CCRF-CEM leukemia; above 100 µM in the assay with HT29 colon; 97.3 µM in the assay with NCI-H522 lung; above 100 µM in the assay with RXF 393 renal; above 100 µM in the assay with SF-268 CNS; above 100 µM with SK-MEL-28 melanoma. Moreover, the TGI in the assay on SK-MEL-5 melanoma came out at 55.9 µM; in the assay on SNB-75 CNS, 81.1 µM.
`CCOc1ccc(/C=C/[N+](=O)[O-])cc1`: the GI50 in the assay on CCRF-CEM leukemia was 3.23 µM; in the assay on HT29 colon, 2.32 µM; in the assay with MALME-3M melanoma, 19 µM; with NCI-H522 lung, 13.2 µM; with RXF 393 renal it was 1.79 µM; in the assay on SF-268 CNS, 14.1 µM. Moreover, the GI50 in the assay on SK-MEL-28 melanoma was 16.6 µM; with SK-MEL-5 melanoma it was 5.78 µM; in the assay with SNB-75 CNS it was 13 µM. Moreover, the TGI with CCRF-CEM leukemia is 52.3 µM; in the assay with HT29 colon, 5.27 µM; with MALME-3M melanoma, 36.9 µM; with NCI-H522 lung, 28 µM; with RXF 393 renal, 3.56 µM; with SF-268 CNS, 28.6 µM. Further, the TGI in the assay with SK-MEL-28 melanoma amounted to 30.9 µM; in the assay on SK-MEL-5 melanoma it was 18.5 µM; with SNB-75 CNS, 30.9 µM.
As for `O=C(Nc1nc2ccc([N+](=O)[O-])cc2[n+]([O-])n1)C(F)(F)F`, the TGI is above 100 µM with CCRF-CEM leukemia; above 100 µM in the assay with HT29 colon; 20.4 µM in the assay with MALME-3M melanoma; above 100 µM with NCI-H522 lung; above 100 µM in the assay on RXF 393 renal; above 100 µM with SF-268 CNS. Besides, the figures for the TGI in the assay with SK-MEL-28 melanoma, in the assay with SK-MEL-5 melanoma and in the assay with SNB-75 CNS were above 100 µM, 25.3 µM and above 100 µM, respectively.
As for `CC1=C[C@]2(CC(C)C3C(CC4(C)C5CCC6C(C)(C)C(=O)CC[C@@]67C[C@@]57CC[C@]34C)O2)OC1=O` (some centres not stated), the TGI in the assay on CCRF-CEM leukemia was above 100 µM; with DMS 273 small cell lung, 32.6 µM; in the assay with HT29 colon, above 100 µM; in the assay on MALME-3M melanoma it was above 100 µM; in the assay on RXF 393 renal, 21.8 µM; in the assay with SF-268 CNS, above 100 µM. For the same compound, the TGI in the assay with SK-MEL-28 melanoma is above 100 µM; in the assay on SK-MEL-5 melanoma it was 20.2 µM; with SNB-75 CNS, 42.1 µM; in the assay with SNB-78 CNS it was 71.9 µM.
